Literature values, collected in patent US20220289705A1, “PROCESS FOR THE PREPARATION OF RIDINILAZOLE AND CRYSTALLINE FORMS THEREOF” (Summit (Oxford) Limited, priority 2019, published 2022).

Test system: Clostridioides difficile
Settings: Phase 2 clinical trial; CDI recurrence

Compound | rates of recurrent disease [%]
c1cc(-c2nc3cc(-c4ccc5[nH]c(-c6ccncc6)nc5c4)ccc3[nH]2)ccn1 [ridinilazole, 2,2′-di(pyridin-4-yl)-1H,1′H-5,5′-bibenzo[d]imidazole] | 14.3
CN[C@H](CC(C)C)C(=O)N[C@H]1C(=O)N[C@@H](CC(N)=O)C(=O)N[C@H]2C(=O)N[C@H]3C(=O)N[C@H](C(=O)N[C@H](C(=O)O)c4cc(O)cc(O)c4-c4cc3ccc4O)[C@H](O)c3ccc(c(Cl)c3)Oc3cc2cc(c3O[C@@H]2O[C@H](CO)[C@@H](O)[C@H](O)[C@H]2O[C@H]2C[C@](C)(N)[C@H](O)[C@H](C)O2)Oc2ccc(cc2Cl)[C@H]1O [vancomycin] | 34.8
